Source: ChEMBL document CHEMBL1201862, “PubChem BioAssay data set” (2004)
Activity calls are given as the source filed them.

Experiments:
[1] = test system: HEK293; assay: inhibitors of LMP1-driven NF-kB reporter, dose response, cell-based, HEK293, luciferase, cherry-pick (AID 588343); format: functional; conditions: Homo sapiens
[2] = target: T1, Apoptotic protease-activating factor 1 (Homo sapiens, UniProt O14727); assay: SAR analysis of small molecule Activators of Apaf-1 in a Fluorescent assay.; format: functional; conditions: read-out: EC50_Mean;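 also: caspase-3 cleavage of fluorogenic Rh110 DEVD substrate downstream of apoptosome activation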
T1 sequence (O14727 whole entry): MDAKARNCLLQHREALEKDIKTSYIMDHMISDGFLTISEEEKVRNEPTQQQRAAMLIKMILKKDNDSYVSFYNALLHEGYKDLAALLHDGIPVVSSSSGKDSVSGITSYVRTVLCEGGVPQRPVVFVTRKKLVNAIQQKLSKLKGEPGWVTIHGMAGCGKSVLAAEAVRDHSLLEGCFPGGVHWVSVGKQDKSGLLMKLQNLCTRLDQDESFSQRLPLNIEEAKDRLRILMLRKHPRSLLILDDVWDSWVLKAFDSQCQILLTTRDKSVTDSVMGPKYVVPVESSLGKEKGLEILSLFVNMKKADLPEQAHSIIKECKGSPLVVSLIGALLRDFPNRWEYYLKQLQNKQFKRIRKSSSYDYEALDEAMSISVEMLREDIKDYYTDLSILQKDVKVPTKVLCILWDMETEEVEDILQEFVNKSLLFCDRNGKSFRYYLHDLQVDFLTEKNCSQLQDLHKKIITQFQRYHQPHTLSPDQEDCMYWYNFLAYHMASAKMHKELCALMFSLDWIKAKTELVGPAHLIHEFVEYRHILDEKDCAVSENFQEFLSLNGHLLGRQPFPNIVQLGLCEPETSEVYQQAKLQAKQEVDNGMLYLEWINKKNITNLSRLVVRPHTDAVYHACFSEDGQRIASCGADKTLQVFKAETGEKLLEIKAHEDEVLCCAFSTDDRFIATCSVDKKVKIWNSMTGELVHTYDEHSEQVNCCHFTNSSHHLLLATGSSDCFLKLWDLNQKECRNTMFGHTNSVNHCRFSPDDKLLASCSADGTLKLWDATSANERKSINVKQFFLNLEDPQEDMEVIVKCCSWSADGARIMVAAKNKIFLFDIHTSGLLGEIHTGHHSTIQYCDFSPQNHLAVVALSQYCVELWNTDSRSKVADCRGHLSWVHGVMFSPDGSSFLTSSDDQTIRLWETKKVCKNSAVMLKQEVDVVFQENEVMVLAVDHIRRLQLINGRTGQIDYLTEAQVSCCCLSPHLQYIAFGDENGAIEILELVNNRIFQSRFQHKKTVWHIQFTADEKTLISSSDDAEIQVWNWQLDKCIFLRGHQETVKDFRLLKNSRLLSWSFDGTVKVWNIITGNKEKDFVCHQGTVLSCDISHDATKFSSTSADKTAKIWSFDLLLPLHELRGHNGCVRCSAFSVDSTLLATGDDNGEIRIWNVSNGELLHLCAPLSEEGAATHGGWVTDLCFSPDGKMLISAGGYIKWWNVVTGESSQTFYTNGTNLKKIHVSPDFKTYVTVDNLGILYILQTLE

[3] = CRF-BP/CRF-R2 complex antagonists, dose response, cell-based, uHTS hits, 384-well (AID 651639); format: functional, Homo sapiens; conditions: read-out: IC50_Mean
[4] = target: Melanocortin receptor 4 (Homo sapiens, UniProt P32245); format: functional, cell-based;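 also: Cell-based assay with luminescence read-out, confirmatory dose-response testing for agonist activity of biased ligands at MC4R; human U2OS cells with tagged receptor and beta-arrestin; potency of agonists that increase receptor coupling to beta-arrestin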
Sequence of Melanocortin receptor 4 (P32245 whole entry): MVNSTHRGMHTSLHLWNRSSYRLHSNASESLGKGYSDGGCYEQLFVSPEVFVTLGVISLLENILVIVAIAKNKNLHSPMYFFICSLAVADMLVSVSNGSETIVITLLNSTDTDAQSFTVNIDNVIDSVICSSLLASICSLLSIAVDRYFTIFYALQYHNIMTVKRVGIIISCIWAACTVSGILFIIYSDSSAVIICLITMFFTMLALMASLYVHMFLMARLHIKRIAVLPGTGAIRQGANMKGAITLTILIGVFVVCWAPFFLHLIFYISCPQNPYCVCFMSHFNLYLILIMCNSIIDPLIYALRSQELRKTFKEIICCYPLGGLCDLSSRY

[5] = test system: H9c2; assay: cells; format: functional, cell-based; conditions: Rattus norvegicus, H9c2, Myocardium;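 also: confirmatory concentration-response retest of ultra-high-throughput screening hits for modulation of myocardial damage; cell death induced by hydrogen peroxide oxidative stress; compound pretreatment for 60 min then peroxide exposure for 2 h; potency is for protecting the cells against peroxide damage rather than for killing them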
[6] = Luminescence Cell-Based Dose Response HTS to Identify Activators of Luciferase Translation or Activity in H4 […] Cells. [Related pubchem assays: 1829 (Project Summary), 1814 (Primary HTS)]; format: functional
[7] = target: T2, Carboxy-terminal domain RNA polymerase II polypeptide A small phosphatase 1 (Homo sapiens, UniProt Q9GZU7); assay: inhibitors of CTDSP1, concentration-response testing, biochemical assay, absorbance-based, actives from ultra-high-throughput screening (AID 540297); format: functional
T2 sequence (Q9GZU7 whole entry): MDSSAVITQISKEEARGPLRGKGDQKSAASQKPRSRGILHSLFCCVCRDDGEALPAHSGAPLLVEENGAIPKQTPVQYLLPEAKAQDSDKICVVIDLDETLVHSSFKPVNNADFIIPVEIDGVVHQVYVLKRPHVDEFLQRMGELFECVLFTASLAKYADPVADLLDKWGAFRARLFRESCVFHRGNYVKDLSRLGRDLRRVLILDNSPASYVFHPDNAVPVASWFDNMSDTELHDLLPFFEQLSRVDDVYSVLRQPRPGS

[8] = target: T3, Low molecular weight phosphotyrosine protein phosphatase (Homo sapiens, UniProt P24666); format: functional; conditions: read-out: IC50_Mean;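 also: Dose-response confirmation assay measuring inhibition of LMPTP enzyme activity by fluorescence intensity read-out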
T3 sequence (P24666 whole entry): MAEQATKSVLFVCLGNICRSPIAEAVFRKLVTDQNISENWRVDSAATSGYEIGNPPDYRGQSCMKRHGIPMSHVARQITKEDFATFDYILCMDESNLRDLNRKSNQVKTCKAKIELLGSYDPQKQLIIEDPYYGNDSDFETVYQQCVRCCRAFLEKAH

[9] = Luminescence Cell-Based Dose Confirmation HTS to Identify Activators of 5'UTR Stem-Loop Driven Alpha-Synuclein mRNA Translation in H4 Neuroglioblastoma Cells. [Related pubchem assays: 1829 (Project Summary), 1814 (Primary HTS)]; format: functional
[10] = microbe, parasite or virus in culture; format: functional; conditions: Mycobacterium tuberculosis
[11] = test system: H4; assay: Luminescence Cell-Based Dose Response HTS to Identify Activators of 5'UTR Stem-Loop Driven Prion Protein mRNA Translation in H4 Neuroglioblastoma Cells. [Related pubchem assays: 1829 (Project Summary), 1814 (Primary HTS)]; format: functional; conditions: Homo sapiens
[12] = inhibitors of intracellular T. cruzi replication, confirmation, NIH3T3 host cells, beta-gal luminescence (AID 2044); format: functional, cell-based;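 also: intracellular parasites grown in NIH/3T3 mouse fibroblasts as host cells; luminescent beta-galactosidase reporter signal from transgenic T. cruzi replicating inside host cells; inhibitors lower the luminescence signal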
[13] = cytotoxicity toward NIH3T3 fibroblasts, dose response, counter-screen, cell-based, ATP luminescence, mouse fibroblasts (AID 2010); format: functional;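 also: cells exposed to compound for about 90 hours before reading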
[14] = target: T4, DNA repair and recombination protein RAD54-like (Homo sapiens, UniProt Q92698); assay: inhibitors of human RAD54 branch migration, confirmation, biochemical, fluorescence, cherry-picked samples, dose series (AID 651657); format: functional
T4 sequence (Q92698 whole entry): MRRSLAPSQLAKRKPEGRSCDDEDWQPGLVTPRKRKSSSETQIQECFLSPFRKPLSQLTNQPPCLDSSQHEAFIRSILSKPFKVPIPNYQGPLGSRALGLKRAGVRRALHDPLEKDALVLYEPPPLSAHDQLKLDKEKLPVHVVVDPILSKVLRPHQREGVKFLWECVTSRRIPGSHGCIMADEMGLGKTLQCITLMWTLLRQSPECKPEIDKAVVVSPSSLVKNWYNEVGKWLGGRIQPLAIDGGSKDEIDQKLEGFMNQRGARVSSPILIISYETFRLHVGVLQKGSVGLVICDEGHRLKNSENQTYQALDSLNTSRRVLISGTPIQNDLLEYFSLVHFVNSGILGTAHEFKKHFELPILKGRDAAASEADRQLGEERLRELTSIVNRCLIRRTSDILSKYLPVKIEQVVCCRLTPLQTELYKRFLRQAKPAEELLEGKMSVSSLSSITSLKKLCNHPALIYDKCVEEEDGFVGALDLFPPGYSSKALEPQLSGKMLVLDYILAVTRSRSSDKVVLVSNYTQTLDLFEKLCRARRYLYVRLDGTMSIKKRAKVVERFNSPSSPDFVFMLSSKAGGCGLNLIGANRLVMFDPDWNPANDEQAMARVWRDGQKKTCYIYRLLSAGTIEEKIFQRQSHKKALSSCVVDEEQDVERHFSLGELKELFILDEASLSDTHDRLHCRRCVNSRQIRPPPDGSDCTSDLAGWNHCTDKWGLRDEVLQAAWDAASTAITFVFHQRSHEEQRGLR

[15] = cells
[16] = growth suppression of beta-catenin-knockout colon cells, dose response, cell-based, HCT116, human colon tumor (AID 1045); format: functional;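 also: HCT116 colon tumor cells with beta catenin knocked out; cells exposed to compound for 60 hours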
[17] = target: T5, Ubiquitin-conjugating enzyme E2 N (Homo sapiens, UniProt P61088); format: functional;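 also: Dose-response confirmation in a TR-FRET assay detecting UBC13-driven polyubiquitin chain formation, inhibition measured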
T5 sequence (P61088 whole entry): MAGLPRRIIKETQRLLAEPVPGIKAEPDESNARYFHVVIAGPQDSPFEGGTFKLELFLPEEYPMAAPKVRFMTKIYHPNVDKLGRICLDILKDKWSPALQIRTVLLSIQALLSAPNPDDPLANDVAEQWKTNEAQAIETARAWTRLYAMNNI

[18] = target: Heat shock protein HSP 90-alpha (Homo sapiens, UniProt P07900); format: functional, organism-based
[19] = target: Eukaryotic translation initiation factor 4E (Mus musculus, UniProt P63073); assay: eIF4E–eIF4G protein interaction inhibitors, dose response, biochemical, TR-FRET (AID 855); format: functional;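 also: potency for disrupting eIF4E binding to eIF4GI seen as loss of FRET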
Sequence of Eukaryotic translation initiation factor 4E (P63073 whole entry): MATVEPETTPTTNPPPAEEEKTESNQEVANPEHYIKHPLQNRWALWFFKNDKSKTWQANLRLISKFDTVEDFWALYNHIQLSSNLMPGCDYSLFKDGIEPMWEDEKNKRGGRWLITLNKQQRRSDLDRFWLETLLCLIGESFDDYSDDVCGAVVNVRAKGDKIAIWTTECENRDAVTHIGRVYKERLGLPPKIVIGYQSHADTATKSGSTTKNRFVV

[20] = cytotoxicity in HEK-293T cells, dose response, cytotoxicity control for TCR NF-kB inhibitor project, luminescence, T-cell screen hits (AID 489026); format: functional, cell-based;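 also: cells exposed to compound about 14 hours before the viability readout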
[21] = growth suppression of PTEN-null colon cells, dose response, cell-based, HCT116 PTEN knockout (AID 1047); format: functional;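 also: HCT116 colon tumor cells with PTEN knocked out; cells exposed to compound for 60 hours before readout; potency for loss of cell viability measured by luminescence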
[22] = target: DNA dC->dU-editing enzyme APOBEC-3A (Homo sapiens, UniProt P31941); assay: Dose Response confirmation of small molecule APOBEC3A DNA Deaminase Inhibitors via a fluorescence-based single-stranded DNA deaminase assay. [Related pubchem assays (depositor defined):AID493011, AID493024]; format: functional
Sequence of DNA dC->dU-editing enzyme APOBEC-3A (P31941 whole entry): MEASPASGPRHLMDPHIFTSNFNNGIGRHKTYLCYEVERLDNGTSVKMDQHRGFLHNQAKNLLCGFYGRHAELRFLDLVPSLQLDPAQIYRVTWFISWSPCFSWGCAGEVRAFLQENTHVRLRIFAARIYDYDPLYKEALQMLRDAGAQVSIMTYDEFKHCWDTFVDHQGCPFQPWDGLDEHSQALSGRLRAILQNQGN

[23] = target: DNA dC->dU-editing enzyme APOBEC-3G (Homo sapiens, UniProt Q9HC16); format: functional;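 also: Dose-response counterscreen measuring inhibition of APOBEC3G DNA deaminase activity, run while confirming APOBEC3A inhibitors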
Sequence of DNA dC->dU-editing enzyme APOBEC-3G (Q9HC16 whole entry): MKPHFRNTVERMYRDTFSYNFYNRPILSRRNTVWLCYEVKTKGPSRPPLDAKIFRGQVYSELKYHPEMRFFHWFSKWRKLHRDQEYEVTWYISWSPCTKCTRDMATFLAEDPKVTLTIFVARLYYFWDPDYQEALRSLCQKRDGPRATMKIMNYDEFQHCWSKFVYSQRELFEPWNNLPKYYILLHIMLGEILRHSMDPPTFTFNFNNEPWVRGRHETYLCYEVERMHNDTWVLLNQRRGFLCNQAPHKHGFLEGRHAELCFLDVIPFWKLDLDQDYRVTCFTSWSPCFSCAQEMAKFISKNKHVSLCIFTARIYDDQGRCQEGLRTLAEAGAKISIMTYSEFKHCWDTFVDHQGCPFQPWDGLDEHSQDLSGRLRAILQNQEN

[24] = target: T6, Corticotropin-releasing factor receptor 2/Corticotropin-releasing factor-binding protein (Homo sapiens, UniProt P24387+Q13324); assay: Dose Response confirmation of uHTS hits for small molecule antagonists of the CRF-binding protein and CRF-R2 receptor complex.; format: functional; conditions: read-out: IC50_Mean
T6 sequence (Q13324 whole entry): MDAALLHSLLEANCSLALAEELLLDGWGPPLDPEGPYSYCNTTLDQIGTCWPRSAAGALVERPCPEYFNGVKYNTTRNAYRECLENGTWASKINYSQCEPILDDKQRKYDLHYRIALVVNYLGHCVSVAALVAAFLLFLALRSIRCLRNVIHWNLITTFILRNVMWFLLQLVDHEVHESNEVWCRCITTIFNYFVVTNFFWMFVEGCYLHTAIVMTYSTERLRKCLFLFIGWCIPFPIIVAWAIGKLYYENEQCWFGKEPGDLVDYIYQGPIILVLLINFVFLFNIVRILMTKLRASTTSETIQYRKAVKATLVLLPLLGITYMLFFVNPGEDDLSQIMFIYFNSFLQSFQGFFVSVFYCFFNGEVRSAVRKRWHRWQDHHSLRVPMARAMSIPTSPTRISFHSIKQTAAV
T6 sequence (P24387 whole entry): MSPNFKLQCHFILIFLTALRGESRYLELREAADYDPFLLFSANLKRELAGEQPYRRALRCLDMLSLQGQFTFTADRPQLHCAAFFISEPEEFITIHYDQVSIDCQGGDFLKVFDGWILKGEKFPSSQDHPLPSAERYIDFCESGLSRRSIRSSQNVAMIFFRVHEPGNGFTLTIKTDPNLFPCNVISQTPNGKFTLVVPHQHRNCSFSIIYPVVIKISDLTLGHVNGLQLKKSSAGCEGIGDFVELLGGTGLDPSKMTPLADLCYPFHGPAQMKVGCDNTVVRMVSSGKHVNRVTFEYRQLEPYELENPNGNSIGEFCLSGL

[25] = target: T6, Corticotropin-releasing factor receptor 2/Corticotropin-releasing factor-binding protein; assay: activators of CRF receptor 2 with binding protein – uHTS hits, confirmation (AID 602473); format: functional; conditions: read-out: EC50_Mean

Cc1cccc(Cn2cc(C=O)c3ccccc32)c1
AC50 [1]: 33.3 µM (active)

O=C1CC2(CC(c3c(F)cccc3Cl)=NO2)C(=O)N1c1ccccc1 (stereo unspecified)
EC50 [2]: > 100 µM (inactive)

COc1ccc(C(=O)O/N=C(\N)Cc2ccc(Cl)c(Cl)c2)cc1OC
IC50 [3]: 5.1 µM (active)

COc1cc(-c2cc(NC=O)c3ncc(-c4ccccc4)n3c2)cc(OC)c1OC
EC50 [4]: > 89.2 µM (inactive)
IC50 [5]: > 79 µM (inactive)

FC(F)(F)c1ccc(Nc2nnnc3ccccc23)cc1
EC50 [6]: 38 µM (active)
IC50 [7]: 8.61 µM (active)
IC50 [8]: 6.59 µM (active)
EC50 [9]: 7.83 µM (active)
CC50 [10]: > 40 µM (active)
EC50 [11]: 6.68 µM (active)

CC(=O)Nc1cc(-c2ccc(C(=O)NC3CC3)cc2)cn2c(-c3cccc(C(C)=O)c3)cnc12
EC50 [4]: > 89.2 µM (inactive)
IC50 [5]: 16.3 µM (active)

Cc1ccc(C)c(Cn2c(O)c(N=NC(S)=Nc3ccccc3F)c3ccccc32)c1
EC50 [12]: 1.17 µM (active)
EC50 [13]: > 60 µM (not active)
AC50 [1]: 2.44 µM (active)

CN(C)CCN(C(=O)CN1C(=O)c2ccccc2C1=O)c1nc2cc3c(cc2s1)OCCO3
EC50 [12]: < 0.1 µM (active)
AC50 [14]: 57.6 µM (active)
EC50 [13]: > 60 µM (not active)
EC50 [15]: 0.163 µM (active)

CCCCCCCCCCCCCCCC[n+]1ccc(C=NO)cc1
EC50 [16]: 0.884 µM (active)
IC50 [17]: > 20 µM (inactive)
AC50 [18]: 3.1 µM (active)
IC50 [19]: 12.7 µM (active)
EC50 [4]: > 3.3 µM (active)
IC50 [20]: 67.7 µM (inactive)
EC50 [21]: 1.26 µM (active)

CCc1ccc(-c2ccc(=O)[nH]n2)cc1S(=O)(=O)CCC(=O)Nc1ccccc1OC
EC50 [2]: > 100 µM (inactive)

CC1CCCC(C)N1C(=O)C1CC(c2ccc(F)cc2)=NO1 (stereo unspecified)
EC50 [2]: > 100 µM (inactive)

CN(C)CCN(C(=O)c1ccco1)c1nc2cc3c(cc2s1)OCCO3
AC50 [14]: 30.6 µM (active)

CCn1c2c(c(C)[n+]1CC)C(=O)CC(C)(C)C2
IC50 [7]: 18.9 µM (active)
IC50 [22]: 1.89 µM (active)
IC50 [23]: 3.74 µM (active)

Cc1ccc(-n2nnnc2SCc2nnc(-c3ccccc3Br)o2)c(C)c1
IC50 [3]: 10.7 µM (active)
IC50 [24]: 2.72 µM (active)
EC50 [25]: > 53 µM (inactive)
